According to PubChem BioAssay AID248 (DTP/NCI, 2004):
“And” between values parts separate entries of the source, which are not always exact repeats. Equal entries are not always repeated. Toxic doses and inconclusive results are not listed. Cut-off read from the data, not from the text of the source: active = T/C of 150% or more; inactive = T/C below 125%.

System: L1210 leukemia ip in BDF1 mice, survival T/C
Experiment: NCI In Vivo Anticancer Drug Screen. Data for tumor model L1210 Leukemia (intraperitoneal) in B6D2F1 (BDF1) mice
Conditions: endpoint: mean survival time, higher = longer survival
How it was run: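 Survival endpoint. Drug-treated group vs vehicle group, expressed as T divided by C. Tumor passaged by transplantation.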

[1] = dose: 100.0 mg/kg/injection, schedule: Q01DX009 (ip), vehicle: Klucel (hydroxypropylcellulose) (HPC)
[2] = dose: 200.0 mg/kg/injection, schedule: Q01DX009 (ip), vehicle: Klucel (hydroxypropylcellulose) (HPC)
[3] = dose: 400.0 mg/kg/injection, schedule: Q01DX009 (ip), vehicle: Klucel (hydroxypropylcellulose) (HPC)
[4] = dose: 100.0 mg/kg/injection, schedule: Q04DX003 (ip), vehicle: other
[5] = dose: 100.0 mg/kg/injection, schedule: Q01DX009 (ip), vehicle: saline with Tween-80
[6] = dose: 100.0 mg/kg/injection, schedule: Q04DX003 (ip), vehicle: saline with Tween-80
[7] = dose: 200.0 mg/kg/injection, schedule: Q01DX009 (ip), vehicle: saline with Tween-80
[8] = dose: 200.0 mg/kg/injection, schedule: Q04DX003 (ip), vehicle: saline with Tween-80
[9] = dose: 400.0 mg/kg/injection, schedule: Q01DX009 (ip), vehicle: saline with Tween-80
[10] = dose: 400.0 mg/kg/injection, schedule: Q04DX003 (ip), vehicle: saline with Tween-80
[11] = dose: 100.0 mg/kg/injection, schedule: Q04DX003 (ip), vehicle: Klucel (hydroxypropylcellulose) (HPC)
[12] = dose: 200.0 mg/kg/injection, schedule: Q04DX003 (ip), vehicle: Klucel (hydroxypropylcellulose) (HPC)

Measured: T/C

CN(C)c1ccc(-c2nc3nc[nH]c(=O)c3[nH]2)cc1
inactive: dose: 5.0 mg/kg/injection, schedule: Q01DX001 (ip), vehicle: saline 100 % of control | dose: 10.0 mg/kg/injection, schedule: Q01DX001 (ip), vehicle: saline 96 % of control | dose: 20.0 mg/kg/injection, schedule: Q01DX001 (ip), vehicle: saline 96 % of control | dose: 40.0 mg/kg/injection, schedule: Q01DX001 (ip), vehicle: saline 96 % of control | dose: 80.0 mg/kg/injection, schedule: Q01DX001 (ip), vehicle: saline 96 % of control

C1CCC2C[N-]CCC2C1.C1CCC2C[N-]CCC2C1.C1CCC2C[N-]CCC2C1.C1CCC2C[N-]CCC2C1.[I][Fe][I] (stereo not given)
inactive: dose: 50.0 mg/kg/injection, schedule: Q01DX009 (ip), vehicle: saline 89 % of control | dose: 100.0 mg/kg/injection, schedule: Q01DX009 (ip), vehicle: saline 94 % of control

COc1cccc(C)c1NC1=NCCO1
inactive: dose: 1.56 mg/kg/injection, schedule: Q01DX009 (ip), vehicle: saline with Tween-80 97 % of control | dose: 1.56 mg/kg/injection, schedule: Q04DX003 (ip), vehicle: saline with Tween-80 97 % of control | dose: 3.13 mg/kg/injection, schedule: Q01DX009 (ip), vehicle: saline with Tween-80 116 % of control | dose: 3.13 mg/kg/injection, schedule: Q04DX003 (ip), vehicle: saline with Tween-80 100 % of control | dose: 6.25 mg/kg/injection, schedule: Q01DX009 (ip), vehicle: saline with Tween-80 101 % of control | dose: 6.25 mg/kg/injection, schedule: Q04DX003 (ip), vehicle: saline with Tween-80 100 % of control and 101 % of control | dose: 25.0 mg/kg/injection, schedule: Q04DX003 (ip), vehicle: saline with Tween-80 96 % of control

O=C(Nc1cccc(Cl)c1Cl)Oc1ccc(F)cc1Cl
inactive: [1] 108 % of control | [2] 108 % of control | [3] 113 % of control

NS(=O)(=O)c1ccc(N/N=c2\c(=O)c(=O)c3ccccc3c2=O)cc1
inactive: dose: 100.0 mg/kg/injection, schedule: Q01DX001 (ip), vehicle: other 101 % of control | [4] 95 % of control | dose: 200.0 mg/kg/injection, schedule: Q01DX001 (ip), vehicle: other 90 % of control | dose: 200.0 mg/kg/injection, schedule: Q04DX003 (ip), vehicle: other 108 % of control | dose: 400.0 mg/kg/injection, schedule: Q01DX001 (ip), vehicle: other 93 % of control | dose: 400.0 mg/kg/injection, schedule: Q04DX003 (ip), vehicle: other 90 % of control

CCCCCCC(C)(C)NC(N)=O
inactive: dose: 100.0 mg/kg/injection, schedule: Q01DX001 (ip), vehicle: saline 98 % of control | dose: 200.0 mg/kg/injection, schedule: Q01DX001 (ip), vehicle: saline 101 % of control | dose: 400.0 mg/kg/injection, schedule: Q01DX001 (ip), vehicle: saline 93 % of control

O=[As](O)(CC(O)c1ccccc1)c1ccc(Cl)cc1 (stereo not given)
inactive: dose: 6.25 mg/kg/injection, schedule: Q01DX001 (ip), vehicle: saline with Tween-80 100 % of control | dose: 12.5 mg/kg/injection, schedule: Q01DX001 (ip), vehicle: saline with Tween-80 109 % of control | dose: 25.0 mg/kg/injection, schedule: Q01DX001 (ip), vehicle: saline with Tween-80 105 % of control and 116 % of control

O=C1/C(=C2\CCc3ccccc32)Cc2ccccc21
inactive: dose: 12.5 mg/kg/injection, schedule: Q04DX002 (ip), vehicle: saline 99 % of control | dose: 25.0 mg/kg/injection, schedule: Q04DX002 (ip), vehicle: saline 96 % of control | dose: 50.0 mg/kg/injection, schedule: Q04DX002 (ip), vehicle: saline 96 % of control

CCOC(=O)C(=Cc1c[nH]c2ccc(Br)cc12)C(=O)OCC
inactive: [5] 98 % of control | [6] 89 % of control | [7] 104 % of control | [8] 96 % of control | [9] 101 % of control | [10] 91 % of control

CC(C)CC1NC(C)(C)CO1 (stereo not given)
inactive: dose: 75.0 mg/kg/injection, schedule: Q01DX001 (ip), vehicle: carboxymethylcellulose (CMC) 102 % of control | dose: 150.0 mg/kg/injection, schedule: Q01DX001 (ip), vehicle: carboxymethylcellulose (CMC) 95 % of control | dose: 300.0 mg/kg/injection, schedule: Q01DX001 (ip), vehicle: carboxymethylcellulose (CMC) 100 % of control

COc1ccc(/C=C/C(=O)c2ccccc2)cc1OC
inactive: dose: 50.0 mg/kg/injection, schedule: Q01DX009 (ip), vehicle: Klucel (hydroxypropylcellulose) (HPC) 92 % of control and 103 % of control | [1] 105 % of control and 108 % of control | [11] 104 % of control | dose: 100.0 mg/kg/injection, schedule: Q04DX003 (ip), vehicle: water 93 % of control | [2] 99 % of control and 95 % of control | [12] 98 % of control | dose: 200.0 mg/kg/injection, schedule: Q04DX003 (ip), vehicle: water 102 % of control | [3] 93 % of control | dose: 400.0 mg/kg/injection, schedule: Q04DX003 (ip), vehicle: Klucel (hydroxypropylcellulose) (HPC) 91 % of control | dose: 400.0 mg/kg/injection, schedule: Q04DX003 (ip), vehicle: water 96 % of control

O=C(O)c1cc(Br)c2ccccc2c1O
inactive: dose: 25.0 mg/kg/injection, schedule: Q01DX009 (ip), vehicle: saline sonified 103 % of control | dose: 50.0 mg/kg/injection, schedule: Q01DX009 (ip), vehicle: saline sonified 108 % of control | dose: 100.0 mg/kg/injection, schedule: Q01DX009 (ip), vehicle: saline sonified 100 % of control | [11] 104 % of control

c1ccc2c(c1)NC1CCN2C1 (stereo not given)
inactive: [6] 109 % of control | [8] 103 % of control | [10] 97 % of control

Cn1nnnc1N/N=C(\Br)c1ccccc1
inactive: [5] 96 % of control | [6] 104 % of control | [7] 93 % of control | [8] 104 % of control | [9] 95 % of control | [10] 100 % of control

COC/C(C)=C/Br
inactive: dose: 100.0 mg/kg/injection, schedule: Q01DX009 (ip), vehicle: acetone 97 % of control | dose: 200.0 mg/kg/injection, schedule: Q01DX009 (ip), vehicle: acetone 94 % of control | dose: 400.0 mg/kg/injection, schedule: Q01DX009 (ip), vehicle: acetone 94 % of control

Oc1ccc2ccccc2c1-c1nc2ccccc2s1
inactive: dose: 25.0 mg/kg/injection, schedule: Q04DX003 (ip), vehicle: other 94 % of control and 111 % of control | dose: 50.0 mg/kg/injection, schedule: Q04DX003 (ip), vehicle: other 97 % of control and 88 % of control | [4] 91 % of control

COc1ccc(C(=O)O)c(CC#N)c1
inactive: [11] 97 % of control | [12] 87 % of control

CNC(=O)Nc1nnc(C)s1
inactive: [1] 98 % of control | [2] 106 % of control | [3] 114 % of control

COc1ccc(OC)c(NC(=O)Nc2cc([N+](=O)[O-])ccc2C)c1
inactive: dose: 200.0 mg/kg/injection, schedule: Q04DX002 (ip), vehicle: Klucel (hydroxypropylcellulose) (HPC) 92 % of control | dose: 400.0 mg/kg/injection, schedule: Q04DX002 (ip), vehicle: Klucel (hydroxypropylcellulose) (HPC) 100 % of control

CC(SCc1cc(=O)[nH]c(=O)[nH]1)C(=O)O (stereo not given)
inactive: dose: 100.0 mg/kg/injection, schedule: Q04DX003 (ip), vehicle: saline 98 % of control | dose: 200.0 mg/kg/injection, schedule: Q04DX003 (ip), vehicle: saline 98 % of control | dose: 400.0 mg/kg/injection, schedule: Q04DX003 (ip), vehicle: saline 96 % of control
